Measured values reported in the supplement of paper PMC10307832.

Legend:
Assay in all cases: relative viability (nuclei count vs DMSO), 5 days (fraction); higher = more cells survive
4EGI-1 + Palbociclib = compound: O=C(O)C(Cc1ccccc1[N+](=O)[O-])=NNc1nc(-c2ccc(Cl)c(Cl)c2)cs1 (mixture of isomers) [4EGI-1] + CC(=O)c1c(C)c2cnc(Nc3ccc(N4CCNCC4)cn3)nc2n(C2CCCC2)c1=O [Palbociclib] (partner 0.5 µM)
Method in brief: (§1)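 Lung cancer cell lines, seeded in 1536-well plates, were treated the following day by pin tool with a single drug or with five library-drug doses (not always all listed) in √10 steps on top of a fixed anchor-drug dose. Cells were fixed and nuclei stained in one step after 5 days, and nuclei were counted. Relative viability is the nuclei count for treated wells divided by that for vehicle wells, reported as medians of duplicate plates.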

XMD8-85 + Alpelisib = compound: CN1CCN(CC1)C2=CC(=C(C=C2)NC3=NC=C4C(=N3)N(C5=CC=CC=C5C(=O)N4C)C)OC [XMD8-85] + Cc1nc(NC(=O)N2CCC[C@H]2C(N)=O)sc1-c1ccnc(C(C)(C)C(F)(F)F)c1 [Alpelisib] (partner 2 µM)
Method in brief: as §1

4EGI-1 + AZD7762 = compound: O=C(O)C(Cc1ccccc1[N+](=O)[O-])=NNc1nc(-c2ccc(Cl)c(Cl)c2)cs1 (mixture of isomers) [4EGI-1] + NC(=O)Nc1cc(-c2cccc(F)c2)sc1C(=O)N[C@H]1CCCNC1 [AZD7762] (partner 0.2 µM)
Method in brief: as §1

4EGI-1 + Bortezomib = compound: O=C(O)C(Cc1ccccc1[N+](=O)[O-])=NNc1nc(-c2ccc(Cl)c(Cl)c2)cs1 (mixture of isomers) [4EGI-1] + CC(C)C[C@H](NC(=O)[C@H](Cc1ccccc1)NC(=O)c1cnccn1)B(O)O [Bortezomib] (partner 0.002 µM)
Method in brief: as §1

Row | Cell Line | relative viability (4EGI-1 + Palbociclib; first compound 0.5 µM) | relative viability (4EGI-1 + Palbociclib; first compound 1.581 µM) | relative viability (4EGI-1 + Palbociclib; first compound 5 µM) | relative viability (4EGI-1 + Palbociclib; first compound 15.81 µM) | relative viability (4EGI-1 + Palbociclib; first compound 50 µM) | relative viability (XMD8-85 + Alpelisib; first compound 0.08 µM) | relative viability (XMD8-85 + Alpelisib; first compound 0.253 µM) | relative viability (XMD8-85 + Alpelisib; first compound 0.8 µM) | relative viability (XMD8-85 + Alpelisib; first compound 2.53 µM) | relative viability (XMD8-85 + Alpelisib; first compound 8 µM) | relative viability (4EGI-1 + AZD7762; first compound 0.5 µM) | relative viability (4EGI-1 + AZD7762; first compound 1.581 µM) | relative viability (4EGI-1 + AZD7762; first compound 5 µM) | relative viability (4EGI-1 + AZD7762; first compound 15.81 µM) | relative viability (4EGI-1 + AZD7762; first compound 50 µM) | relative viability (4EGI-1 + Bortezomib; first compound 0.5 µM) | relative viability (4EGI-1 + Bortezomib; first compound 1.581 µM) | relative viability (4EGI-1 + Bortezomib; first compound 5 µM) | relative viability (4EGI-1 + Bortezomib; first compound 15.81 µM) | relative viability (4EGI-1 + Bortezomib; first compound 50 µM)
1 | 201T | 0.365 | 0.358 | 0.364 | 0.316 | 0.31 | 0.966 | 1.05 | 1 | 1.08 | 0.901 | 0.797 | 0.514 | 0.736 | 0.619 | 0.495 | 1.15 | 1.05 | 1.08 | 1.09 | 1.03
2 | A549 |  |  |  |  |  | 0.744 | 0.883 | 0.806 | 0.807 | 0.759 |  |  |  |  |  |  |  |  |  | 
3 | A-427 | 0.543 |  | 0.535 | 0.492 | 0.319 | 1.09 | 1.13 | 1.1 | 1.11 | 1 | 0.819 |  | 0.715 | 0.513 | 0.231 | 0.984 | 0.795 | 0.911 | 0.832 | 0.625
4 | ABC-1 | 0.73 |  | 0.738 | 0.527 | 0.249 | 1.03 | 1.15 | 1.37 | 1.01 |  | 0.758 |  | 0.774 | 0.506 | 0.516 | 0.344 | 0.291 | 0.319 | 0.285 | 0.214
5 | BEN | 0.452 | 0.455 | 0.498 | 0.46 | 0.458 | 0.871 | 1.06 | 0.966 | 0.662 | 0.553 | 0.76 | 0.657 | 0.689 | 0.593 | 0.382 | 0.848 | 1.22 | 0.903 | 0.754 | 0.604
6 | CAL-12T | 0.618 |  | 0.577 | 0.169 | 0.145 | 1.28 | 1.3 | 1.11 | 0.842 | 0.658 | 0.643 |  | 0.649 | 0.518 | 0.366 |  |  | 1.1 | 0.951 | 0.403
7 | COR-L23 | 0.382 | 0.214 | 0.3 | 0.205 | 0.101 | 0.882 | 0.887 | 0.742 | 0.712 | 0.506 |  |  |  |  |  | 0.983 | 0.651 | 1.09 | 0.808 | 0.19
8 | COR-L 105 | 0.386 | 0.419 | 0.434 | 0.334 | 0.344 |  | 1.22 | 0.926 | 0.635 | 0.358 |  |  |  |  |  | 0.876 | 0.592 | 0.725 | 0.424 | 0.252
9 | Calu-6 |  |  |  |  |  | 1.02 | 0.985 | 1.05 | 1.08 | 0.865 |  |  |  |  |  | 0.982 | 0.877 | 1.15 | 0.989 | 0.33
10 | ChaGo-K-1 | 0.95 | 0.936 | 0.973 | 1.01 | 0.556 |  |  |  |  |  | 0.875 | 0.87 | 0.876 | 0.897 | 0.465 | 0.995 |  | 0.954 | 0.659 | 0.434
11 | EBC-1 |  |  |  |  |  | 0.871 | 0.94 |  | 0.694 | 0.336 |  |  |  |  |  | 0.668 | 0.547 | 0.704 | 0.52 | 0.181
12 | EKVX | 0.456 |  | 0.365 | 0.23 | 0.307 | 0.776 | 0.996 | 0.935 | 0.986 | 0.899 | 0.812 |  | 0.649 | 0.546 | 0.656 | 1.09 | 0.965 | 1.06 | 1.04 | 1.04
13 | EMC-BAC-2 | 0.561 |  | 0.504 | 0.29 | 0.157 | 0.74 | 0.739 | 0.752 | 0.733 | 0.72 | 1.36 |  | 1.17 | 1 | 0.599 | 1.17 | 1.02 | 1.13 | 1.05 | 0.88
14 | EPLC-272H | 0.317 |  | 0.367 | 0.274 | 0.301 |  | 0.916 | 0.93 | 1.01 | 0.624 | 0.264 |  | 0.239 | 0.151 | 0.0667 | 1.01 | 0.686 | 0.898 | 0.618 | 0.497
15 | IA-LM |  |  |  |  |  | 0.613 |  | 0.66 | 0.77 | 0.225 |  |  |  |  |  | 0.873 | 0.707 | 0.552 | 0.144 | 0.0723
16 | LK-2 | 0.692 |  | 0.639 | 0.803 | 0.539 | 1.16 | 1.04 | 1.12 | 1.26 | 0.694 | 0.543 |  | 0.451 | 0.344 | 0.177 |  |  |  |  | 
17 | NCI-H358 | 0.12 | 0.153 | 0.152 | 0.153 | 0.12 | 0.957 | 0.856 | 1.11 | 0.854 | 0.584 | 0.632 |  | 0.582 | 0.275 | 0.218 |  |  |  |  | 
18 | NCI-H520 | 0.27 | 0.225 | 0.266 | 0.223 | 0.105 | 0.891 | 0.918 | 0.866 | 0.854 | 0.515 |  |  |  |  |  | 0.838 | 0.521 | 0.999 | 0.536 | 0.108
